Consider 2 molecules from patent US7303762B2, “Absorption enhancers” (Axcess Limited, priority 2000, dated 2007).

One experiment deals with Caco-2 cells. The experiment can be described thus: Trans-epithelial electrical resistance (TEER) across Caco-2 mono-layer. In kind it is cell-based, human. Particulars: four replicates. Here is the method:
Caco-2 cells (a cell-line derived from human colon adenocarcinoma) were grown as a confluent mono-layer on the surface of a porous membrane (pore size 0.4 μm, surface area 0.33 cm^2) separating two aqueous compartments, the upper compartment filled with 200 μl of culture medium, and the lower compartment containing 600 μl. Electrical resistance across the mono-layer was measured using an epithelial voltohmeter connected to electrodes inserted into the medium on either side of the mono-layer in the upper and lower compartments. This trans-epithelial electrical resistance (TEER) was measured immediately before, and 15 minutes after the addition of aromatic alcohols to the upper compartment (see Table 6 below). Use of the compounds diluted two to four-fold below those concentrations shown eliminates the falls in electrical resistance observed. Fall in TEER is considered indicative of the appearance of aqueous channels between cells, and is evidence that the mechanism of action of the aromatic alcohols tested, in exerting their absorption enhancing activity, is via opening or loosening of tight junctions between intestinal cells.

Experiment [1] in a line: Plasma glucose after intra-jejunal administration of insulin capsules to conscious pigs. Type of experiment: in vivo. Particulars: one capsule. The protocol:
Formulations prepared as described in examples 1 and 2 were administered (one capsule per animal) directly to the intestine of conscious pigs (40 to 60 kg) via an in-dwelling stoma implanted surgically in the jejunum. Before and after administration, at the intervals shown, blood samples were taken for analysis of blood glucose levels. As a control, capsules containing 200 iu of unformulated insulin were also administered intra-jejunally.

For `OCc1ccccc1` [Benzyl alcohol], the “TEER 15 minutes after” value in the experiment with Caco-2 cells (15 minutes after addition to upper compartment, concentration 40 μl/ml) is given as −1.6 ± 3.2 ohm · cm^2. The “TEER Before addition” value with Caco-2 cells (immediately before addition of agent) is given as 447.2 ± 76.9 ohm · cm^2.

On to “Control (unformulated insulin): capsules containing 200 iu of unformulated insulin administered intra-jejunally”, for which the “Changes in plasma glucose” value in experiment [1] (15 minutes, + s.d.) is on record as 0.01 + 0.24 mmol/l; in experiment [1] (30 minutes, + s.d.), −0.05 + 0.21 mmol/l; in experiment [1] (45 minutes, + s.d.) it was −0.06 + 0.17 mmol/l; in experiment [1] (60 minutes, + s.d.), −0.32 + 0.23 mmol/l; in experiment [1] (90 minutes, + s.d.), −0.17 + 0.21 mmol/l; in experiment [1] (120 minutes, + s.d.), −0.22 + 0.32 mmol/l. The “Changes in plasma glucose” value in experiment [1] (180 minutes, + s.d.) is −0.13 + 0.21 mmol/l; in experiment [1] (240 minutes, + s.d.) it was −0.34 + 0.32 mmol/l; in experiment [1] (time −10 minutes), 0.00 mmol/L.
